This is an account of results in ChEMBL document CHEMBL4732091, “Design, synthesis and biological evaluation of novel thiosemicarbazone-indole derivatives targeting prostate cancer cells” (Eur J Med Chem, 2021).

Assay [1] concerns PC-3. The assay is described as follows: Antiproliferative activity against human PC-3 cells assessed as inhibition of cell proliferation measured after 72 hrs by MTT assay. To be noted: PC-3, 72 h. Format: functional, cell-based. (Tetrazolium dyes change colour on reduction, which living cells bring about.)
Assay [2] has as its system MGC-803. The assay is described as follows: Antiproliferative activity against human MGC-803 cell line cells assessed as inhibition of cell proliferation measured after 72 hrs by MTT assay. In kind it is functional, cell-based. To be noted: MGC-803, 72 h.
In assay [3] the test system is DU-145. Put plainly: Antiproliferative activity against human DU-145 cell line cells assessed as inhibition of cell proliferation measured after 72 hrs by MTT assay. To be noted: DU-145, 72 h. In kind it is functional, cell-based.
Assay [4] can be described thus: Cytotoxicity against human WPMY-1 cell line cells assessed as inhibition of cell proliferation measured after 72 hrs by MTT assay. Format: cell-based. The settings on record: WPMY-1, 72 h.
Assay [5] relates to ECa-109 cell line. Put plainly: Antiproliferative activity against human ECa-109 cell line cells assessed as inhibition of cell proliferation measured after 72 hrs by MTT assay. In kind it is functional, cell-based. To be noted: ECa-109, 72 h.
Assay [6] concerns MCF7. Put plainly: Antiproliferative activity against human MCF7 cell line cells assessed as inhibition of cell proliferation measured after 72 hrs by MTT assay. Format: functional, cell-based. To be noted: MCF7, 72 h.

The term IC50 denotes the concentration needed to halve the response being measured. On to `COc1ccc2[nH]cc(CCNC(=O)c3ccc(NC(=S)N/N=C/c4ccc(C)cn4)cc3)c2c1`, for which the IC50 in assay [1] came to 0.061 µM; in assay [2] it was 10.4 µM; in assay [3], 3.22 µM; in assay [4] it was 18.1 µM; in assay [5] it was 5.75 µM; in assay [6], 5.33 µM.
Regarding `Cc1ccc(/C=N/NC(=S)Nc2ccc(C(=O)NCCc3c[nH]c4ccc(Cl)cc34)cc2)nc1`, the IC50 was found to be 0.121 µM in assay [1]; 2.67 µM in assay [2]; 0.925 µM in assay [3]; 7.09 µM in assay [4]; 2.4 µM in assay [5]; 7.28 µM in assay [6].
Regarding `COc1ccc2[nH]cc(CCNC(=O)c3ccc(NC(=S)N/N=C(\C)c4ccccn4)cc3)c2c1`, the IC50 stood at 0.947 µM in assay [1]; 4.02 µM in assay [2]; 5.88 µM in assay [3]; 4.51 µM in assay [4]; 6.48 µM in assay [5]; 5.38 µM in assay [6].
`Cc1ccc(/C=N/NC(=S)NC2CCC(C(=O)NCCc3c[nH]c4ccccc34)CC2)nc1` (stereo unspecified): the IC50 in assay [1] stood at 2.22 µM; in assay [2], 4.58 µM; in assay [3], 2.22 µM; in assay [4] it was 1.56 µM; in assay [5] it was 14.1 µM; in assay [6], 8.13 µM.
For `Cc1ccc(/C=N/NC(=S)Nc2ccc(C(=O)NCCc3c[nH]c4ccccc34)cc2)nc1`, the IC50 was 0.241 µM in assay [1]; 7.02 µM in assay [2]; 1.46 µM in assay [3]; 12.5 µM in assay [4]; 3.94 µM in assay [5]; 7.11 µM in assay [6].
Consider `COc1ccc(/C=N/NC(=S)Nc2ccc(C(=O)NCCc3c[nH]c4ccc(OC)cc34)cc2)nc1`, for which the IC50 in assay [1] is 0.093 µM; in assay [2] it was 8.92 µM; in assay [3], 4.22 µM; in assay [4] it was more than 20 µM; in assay [5] it was 9.12 µM; in assay [6], 1.96 µM.
In the case of `COc1ccc2[nH]cc(CCNC(=O)c3ccc(NC(=S)N/N=C/c4ccc(O)cn4)cc3)c2c1`, the IC50 is 2.48 µM in assay [1]; more than 20 µM in assay [2]; 15.2 µM in assay [3]; more than 20 µM in assay [4]; more than 20 µM in assay [5]; more than 20 µM in assay [6].
Consider `Cc1[nH]c2ccccc2c1CCNC(=O)c1ccc(NC(=S)N/N=C/c2ccc(O)cn2)cc1`, for which the IC50 in assay [1] was 1.5 µM; in assay [2], more than 20 µM; in assay [3], 17 µM; in assay [4] it was more than 20 µM; in assay [5] it was 16.2 µM; in assay [6] it was more than 20 µM.
Regarding `Cc1[nH]c2ccccc2c1CCNC(=O)c1ccc(C(=O)NO)cc1`, the IC50 in assay [1], in assay [2], in assay [3], in assay [4], in assay [5] and in assay [6] was more than 20 µM in each case.
Turning to `Cc1ccc(/C=N/NC(=S)Nc2ccc(C(=O)NCCc3c[nH]c4ccccc34)cn2)nc1`, the IC50 in assay [1] amounted to 0.512 µM; in assay [2] it was 7.59 µM; in assay [3], 6.15 µM; in assay [4] it was 2.5 µM; in assay [5], 12.5 µM; in assay [6], 8.32 µM.
`Cc1[nH]c2ccccc2c1CCNC(=O)c1ccc(NC(=S)N/N=C2/C(=O)Nc3ccccc32)cc1`: the IC50 in assay [1] was 17 µM; in assay [2], more than 20 µM; in assay [3], 18.5 µM; in assay [4], more than 20 µM; in assay [5], more than 20 µM; in assay [6], more than 20 µM.
As for `Cc1ccc(/C=N/NC(=S)NCc2ccc(C(=O)NCCc3c[nH]c4ccccc34)cc2)nc1`, the IC50 was 1.42 µM in assay [1]; 4.85 µM in assay [2]; 1.2 µM in assay [3]; 1.09 µM in assay [4]; 18.5 µM in assay [5]; 8.62 µM in assay [6].
With `Cc1ncc(CO)c(/C=N/NC(=O)c2ccc(C(=O)NCCc3c(C)[nH]c4ccccc34)cc2)c1O`, the IC50 in assay [1], in assay [2], in assay [3], in assay [4], in assay [5] and in assay [6] was more than 20 µM in each case.
Regarding `Cc1ccc(/C=N/NC(=S)Nc2ccc(C(=O)NCCc3c[nH]c4ccc(C)cc34)cc2)nc1`, the IC50 in assay [1] came out at 0.081 µM; in assay [2], 3.12 µM; in assay [3], 1.06 µM; in assay [4] it was 10.9 µM; in assay [5], 1.63 µM; in assay [6], 4.02 µM.
Turning to `Cc1[nH]c2ccccc2c1CCNC(=O)c1ccc(NC(=S)N/N=C/c2ccc(Br)cn2)cc1`, the IC50 in assay [1] is 0.322 µM; in assay [2], more than 20 µM; in assay [3] it was 1.9 µM; in assay [4], 1.78 µM; in assay [5], 13.9 µM; in assay [6], more than 20 µM.
Take `NC(=S)N/N=C/c1ncccc1N` [TRIAPINE]: the concentration for half-maximal inhibition (IC50) in assay [4] stood at 4.96 µM.
`Cc1ccc(/C=N/NC(=S)NCCc2c[nH]c3ccccc23)nc1`: the IC50 in assay [1] stood at 0.601 µM; in assay [2], 5.66 µM; in assay [3] it was 3.13 µM; in assay [4], 2.33 µM; in assay [5], 4.51 µM; in assay [6], 9.1 µM.
Consider `COc1ccc(/C=N/NC(=S)Nc2ccc(C(=O)NCCc3c(C)[nH]c4ccccc34)cc2)nc1`, for which the IC50 is 0.084 µM in assay [1]; 6.33 µM in assay [2]; 4.08 µM in assay [3]; more than 20 µM in assay [4]; 5.49 µM in assay [5]; 6.28 µM in assay [6].
Turning to `Cc1[nH]c2ccccc2c1CCNC(=O)c1ccc(NC(=S)N/N=C/c2ccc(Cl)cn2)cc1`, the IC50 in assay [1] worked out at 0.454 µM; in assay [2], 11.1 µM; in assay [3], 5.22 µM; in assay [4], 1.78 µM; in assay [5], 14.3 µM; in assay [6], 10.2 µM.
With `Cc1[nH]c2ccccc2c1CCNC(=O)c1ccc(NC(=S)N/N=C/c2ccccc2O)cc1`, the IC50 was 5.32 µM in assay [1]; more than 20 µM in assay [2]; 14.5 µM in assay [3]; 2.87 µM in assay [4]; 9.5 µM in assay [5]; more than 20 µM in assay [6].
Consider `Cc1[nH]c2ccccc2c1CCNC(=O)c1ccc(NC(=S)N/N=C/c2ccc(C(=O)O)cn2)cc1`, for which the IC50 was 1.6 µM in assay [1]; more than 20 µM in assay [2]; 5.66 µM in assay [3]; 3.22 µM in assay [4]; 16.6 µM in assay [5]; more than 20 µM in assay [6].
As to `CN(C(=S)NN=C(c1ccccn1)c1ccccn1)C1CCCCC1`, in assay [4], the IC50 is 0.711 µM.
On to `Cc1[nH]c2ccccc2c1CCNC(=O)c1ccc(NC(=S)N/N=C/c2ccccn2)cc1`, for which the IC50 worked out at 0.091 µM in assay [1]; 8.64 µM in assay [2]; 3.63 µM in assay [3]; 13.1 µM in assay [4]; 3.46 µM in assay [5]; 10.3 µM in assay [6].
Take `C/C(=N\NC(=S)Nc1ccc(C(=O)NCCc2c(C)[nH]c3ccccc23)cc1)c1ccccn1`: the IC50 in assay [1] is 0.707 µM; in assay [2], 6.24 µM; in assay [3] it was 4.02 µM; in assay [4], 3.55 µM; in assay [5], 6 µM; in assay [6] it was 6.42 µM.
For the compound `C/C(=N\Nc1ccc(C(=O)NCCc2c(C)[nH]c3ccccc23)cn1)c1ccccn1`, the IC50 in assay [1] was 0.406 µM; in assay [2], 4.22 µM; in assay [3] it was 2.05 µM; in assay [4], 0.45 µM; in assay [5], 0.664 µM; in assay [6], 0.871 µM.
As to `COc1ccc2[nH]cc(CCNC(=O)c3ccc(NC(=S)N/N=C/c4ccccn4)cc3)c2c1`, the IC50 in assay [1] was determined as 0.133 µM; in assay [2], 5.35 µM; in assay [3], 4.13 µM; in assay [4] it was 12.3 µM; in assay [5] it was 5.03 µM; in assay [6] it was 6.49 µM.
